In PubChem BioAssay AID1645868 (Buhrlage Lab, Dana-Farber Cancer Institute and Novartis …, 2021) one finds IC50 data, which are given here for 32 compounds.

Active and inactive are the calls of the source.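 How the source made its calls: active means maximal percent inhibition of the deubiquitinase OTUD3 of at least 30% across the tested doses; inactive means the rest.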 Positions of bridges follow the written chain, without caps; N, C: chain ends. Residues, ends and D or L forms follow the SMILES beside them. ξ: configuration not given here. *: point of attachment. Pentadecanoyl(3ξ-OH,15-Gua) = N=C(N)NCCCCCCCCCCCCC(O)CC(=O)* Some results are limits rather than exact numbers.

Sequence of OTU domain-containing protein 3 (Homo sapiens) (Q5T2D3 whole entry, looked up, the tested form may be a part): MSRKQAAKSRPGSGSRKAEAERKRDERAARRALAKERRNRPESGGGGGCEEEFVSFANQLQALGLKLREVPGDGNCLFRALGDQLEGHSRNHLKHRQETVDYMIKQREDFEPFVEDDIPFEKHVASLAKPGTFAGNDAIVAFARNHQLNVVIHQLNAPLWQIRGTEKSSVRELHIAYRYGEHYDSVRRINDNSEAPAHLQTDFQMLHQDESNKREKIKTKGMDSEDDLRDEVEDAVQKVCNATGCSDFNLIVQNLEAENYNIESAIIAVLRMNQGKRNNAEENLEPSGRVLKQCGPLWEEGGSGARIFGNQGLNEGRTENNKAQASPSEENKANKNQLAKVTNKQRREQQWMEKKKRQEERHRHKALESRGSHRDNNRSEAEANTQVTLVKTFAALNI

This assay addresses OTU domain-containing protein 3 (Homo sapiens) (UniProt Q5T2D3). The assay is described as follows: Validation of screening hits, potency titration, in vitro enzymatic, OTU domain-containing protein 3 DUB inhibitors (AID 1645868). The conditions noted are these: purified OTUD3, ubiquitin-rhodamine cleavage fluorescence, 2 h.
Consider `CCCCCC(=O)N1c2ccccc2NC2=C(C(=O)CC(c3ccc(C(C)(C)C)cc3)C2)C1c1ccncc1` (configuration not stated), for which the IC50 was 19.7 µM.
As for `O=C(Nc1ccc(NS(=O)(=O)c2ccc3c4c(cccc24)CC3)cc1)c1ccccc1`, the IC50 was > 50 µM (inactive).
The value for `CCOC(=O)c1ccc(-n2c(=O)c(C#N)cc3c(=O)n4ccccc4nc32)cc1` was > 50 µM (inactive); that for `CCCC(=O)N1CCC2(CC1)Nc1ccccc1NC2=O` was > 50 µM (inactive); that for `O=C(Cc1ccc(Cl)c(Cl)c1)OCC(=O)c1c[nH]c2ccccc12` was > 50 µM (inactive).
On to `Cc1ccc(Nc2nc(C(=O)NCc3ccc4c(c3)OCO4)cc3occc23)cc1Cl`, for which the IC50 is > 50 µM (inactive).
For the compound `CCn1c(CN2CCCC(c3nc(-c4cccnc4)n[nH]3)C2)nc2ccccc21` (configuration not stated), the IC50 is > 50 µM (inactive).
The value for `CCOc1ccccc1C(=O)NCC(=O)OC(C(=O)c1c[nH]c2ccccc12)c1ccccc1` (configuration not stated) was > 50 µM (inactive); that for `O=C(NCc1cccc(NC(=O)C2CC2)c1)Nc1cccc2ccccc12` was 30.7 µM; that for `CCOc1ccc(-n2c(C)cc(/C=C(\C#N)c3nc4ccccc4[nH]3)c2C)cc1` was > 50 µM (inactive).
The value for `O=S1(=O)NC(=NCCc2ccc(Cl)cc2Cl)c2ccccc21` was > 50 µM (inactive); that for `Cc1cc(C(=O)N2CC(C(=O)Nc3cc(C(F)(F)F)ccc3Cl)C2)no1` was > 50 µM (inactive); that for `CN(CCCNC(=O)c1cccc2c1SCCC2=O)c1ccccc1` was > 50 µM (inactive).
Turning to `COc1cc(NC(=O)Cn2c(=O)n(-c3ccc(CC(=O)NC4CCCC4)cc3)c(=O)c3ccccc32)cc(OC)c1`, the IC50 was > 50 µM (inactive).
On to `c1ccc(CN2CCN(c3nc4ccccc4n4nnnc34)CC2)cc1`, for which the IC50 is > 50 µM (inactive).
`N#Cc1cc2c(nc1SCC(=O)NCc1ccccc1)CCCC2`: the IC50 is > 50 µM (inactive).
Under `COc1ccc(C2C(C(=O)C(C)(C)C)N3c4ccccc4C=CC3C23C(=O)c2ccccc2C3=O)c(OC)c1` (configuration not stated) stands > 50 µM (inactive); under `O=C1CC(NS(=O)(=O)c2ccc3ccccc3c2)CN1c1cccc(F)c1` (configuration not stated), > 50 µM (inactive).
`O=C(CCCCn1c(=O)[nH]c2ccccc2c1=O)Nc1cccc(Cl)c1`: the IC50 was 21.6 µM.
Consider `O=C(C(c1ccccc1)c1ccccc1)N1CCC(c2nc3c(nnn3Cc3c(F)cccc3Cl)c(=O)[nH]2)CC1`, for which the IC50 is 27.3 µM.
Take `CC1NC(=O)C(CC(N)=O)NC(=O)C(C(C)O)NC(=O)C(Cc2ccc(O)cc2)NC(=O)C(C(C)C)NC(=O)C(NC(=O)CC(O)CCCCCCCCCCCCN=C(N)N)C(C)OC1=O` (configuration not stated) ({Pentadecanoyl(3ξ-OH,15-Gua)}-TVYTNA; ester 1-C; configuration not given here): the IC50 is 36.6 µM.
The value for `Cc1ccc(Cn2nnc(-c3ccccc3Cl)n2)cc1` was > 50 µM (inactive); that for `N#Cc1cccc(S(=O)(=O)N2CCc3nc4ccccc4n3CC2)c1` was 28.3 µM.
Consider `O=C(/C=C/c1ccc2c(c1)OCO2)Nc1nc2c(s1)COCC2`, for which the IC50 is > 50 µM (inactive).
For `CCC(=O)N1c2ccccc2NC2=C(C(=O)CC(c3ccccc3OCc3ccccc3)C2)C1c1ccccc1` (configuration not stated), the half-maximal inhibitory concentration (IC50) is 12.2 µM.
`O=C(c1ccc(COc2cccc3ccccc23)o1)N1CCC(Cc2ccccc2)CC1`: the IC50 is > 50 µM (inactive).
The value for `Cc1cccc(C(=O)Nc2ccccc2Sc2nc3c(c(=O)n(C)c(=O)n3C)n2C)c1` was > 50 µM (inactive); that for `C=Cc1ccc(Cn2cccc(S(=O)(=O)N3CCCC3)c2=O)cc1` was > 50 µM (inactive).
As for `Cc1ccc2nc(NC(=O)C3CCCN3S(=O)(=O)c3ccc4c(c3)OCCO4)sc2c1` (configuration not stated), the IC50 was > 50 µM (inactive).
The value for `CCCc1nc2c(sc3nc4c(cc32)COC(C)(C)C4)c(=O)n1CC(=O)Nc1ccccc1C` was 30 µM; that for `Cc1ccc(CSC2=NS(=O)(=O)c3ccccc3N2)cc1` was > 50 µM (inactive); that for `O=C1CC(O)C(C2=CC(=O)c3c(O)cccc3C2=O)O1` (configuration not stated) was 2.47 µM.
